Source: US8962630B2, “Pyrrolopyrimidine compounds and their uses” (Novartis AG, priority 2008, dated 2015)
Where two headings read alike, the source gives them in different places.

What was measured:
Format in all cases: biochemical
[1] = molecular target: CDK2/cyclin A (Homo sapiens (Human), UniProt P24941); assay: CDK2/Cyclin A enzymatic activity assay (IMAP-FP)
[2] = molecular target: CDK1/cyclin B (Homo sapiens (Human), UniProt P06493); assay: CDK1/Cyclin B enzymatic activity assay (IMAP-FP)
From the text: A 384-well microtiter IMAP-FPT™ (Molecular Devices Trade Mark Technology) endpoint assay was used for CDK1/cyclin B kinase activity measurements. The same assay was used for IC50 determination of small molecule inhibitors.

[3] = molecular target: CDK4/cyclin D1 (Homo sapiens (Human), UniProt P11802); assay: CDK4/Cyclin D1 enzymatic activity assay (Lance TR-FRET)
Protocol: A 384-well microtiter Lance TR-FRET (time-resolved-fluorescence energy transfer) endpoint assay was used for CDK4/cyclin D1 kinase activity measurements. The same assay was used for IC50 determination of small molecule inhibitors. In general, the kinase reactions were carried out in 30 μL volumes in the reaction solution containing the following: 2 uL compound (in […]), 18 uL CDK4/cyclin D1 in Assay Buffer (50 mM HEPES, pH 7.5, 5 mM MgCl2, 2 mM MnCl2, 1 mM DTT, 0.05% BSA, 0.02% Tween-20), 10 uL of the mixture of pRb152 and ATP. The final reaction mixture contains compound (inhibitor) with the concentration varying from 0.005-10 μM, 2% DMSO, 0.3 nM CDK4/cyclin D1, 175 nM pRb152, and 3 μM ATP (Amersham Pharmacia, Cat. No. 27-2056-01). All reactions were run at room temperature in 384-well white flat-bottom OptiPlates (Perkin Elmer, Cat. No. 6007290) for 60 min then were quenched by the addition of 10 μL of 120 mM EDTA. The signals were captured by the addition of 40 μL of the Detection Solution containing the following: Detection Buffer (50 mM HEPES, pH 7.5, 30 mM EDTA, 0.1% Triton x-100, 0.05% BSA), 70 ng/mL anti-phospho-pRb(S780) (Cell Signaling Technology, Cat. No. 9307S), 1 nM Lance Eu-W1024-Rabbit anti-IgG (Perkin Elmer, Cat. No. AD0082), and 20 nM SureLight™ Allophycocyanin-Streptavidin (Perkin Elmer, Cat. No. CR130-100). The resulted solutions were incubated at room temperature for 2 hours before read on the Evision Multilabel Reader (Perkin Elmer, Envision 2102-0010).
CDk4/cyclin D1 recombinant protein used in the enzymatic activity assay was prepared by coexpressing pDEST10-CDK4 (N-terminal His6) and pFastBacDual-GST-hCyclinDl viruses in Sf21 cells.

[4] = Table 2, 20 μM ATP, read-out: CDK1
[5] = Table 2, 3 μM ATP, read-out: CDK4

Chain of CDK1/cyclin B (P06493 whole entry, species assumed): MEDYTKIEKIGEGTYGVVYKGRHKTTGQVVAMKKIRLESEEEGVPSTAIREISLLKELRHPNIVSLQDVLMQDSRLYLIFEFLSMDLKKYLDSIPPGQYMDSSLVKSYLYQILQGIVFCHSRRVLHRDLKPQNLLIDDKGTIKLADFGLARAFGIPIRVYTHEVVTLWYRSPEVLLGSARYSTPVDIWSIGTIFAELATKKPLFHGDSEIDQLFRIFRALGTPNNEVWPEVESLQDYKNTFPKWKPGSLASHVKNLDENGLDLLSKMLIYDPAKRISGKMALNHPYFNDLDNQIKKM
Chain of CDK1/cyclin B (P14635 whole entry partner, species assumed): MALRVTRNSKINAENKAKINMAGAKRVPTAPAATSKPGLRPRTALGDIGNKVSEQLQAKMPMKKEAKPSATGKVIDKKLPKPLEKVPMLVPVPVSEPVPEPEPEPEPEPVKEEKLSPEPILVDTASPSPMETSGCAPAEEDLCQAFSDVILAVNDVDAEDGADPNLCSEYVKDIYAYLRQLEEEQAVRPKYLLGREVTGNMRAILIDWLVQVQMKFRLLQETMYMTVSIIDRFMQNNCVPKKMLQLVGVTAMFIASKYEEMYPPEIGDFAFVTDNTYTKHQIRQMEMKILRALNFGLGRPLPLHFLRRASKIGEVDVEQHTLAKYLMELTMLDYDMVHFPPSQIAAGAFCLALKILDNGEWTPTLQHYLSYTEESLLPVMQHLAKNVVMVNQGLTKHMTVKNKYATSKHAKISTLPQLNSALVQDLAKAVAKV
Chain of CDK4/cyclin D1 (P11802 whole entry): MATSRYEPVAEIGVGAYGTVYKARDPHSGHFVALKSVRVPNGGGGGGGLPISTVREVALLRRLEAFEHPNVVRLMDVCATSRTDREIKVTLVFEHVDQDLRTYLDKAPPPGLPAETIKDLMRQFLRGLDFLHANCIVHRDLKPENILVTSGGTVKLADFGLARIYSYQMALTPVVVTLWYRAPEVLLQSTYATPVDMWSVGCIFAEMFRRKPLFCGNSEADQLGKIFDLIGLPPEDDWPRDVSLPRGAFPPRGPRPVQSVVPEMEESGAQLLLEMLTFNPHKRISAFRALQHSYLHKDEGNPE
Chain of CDK4/cyclin D1 (P24385 whole entry partner): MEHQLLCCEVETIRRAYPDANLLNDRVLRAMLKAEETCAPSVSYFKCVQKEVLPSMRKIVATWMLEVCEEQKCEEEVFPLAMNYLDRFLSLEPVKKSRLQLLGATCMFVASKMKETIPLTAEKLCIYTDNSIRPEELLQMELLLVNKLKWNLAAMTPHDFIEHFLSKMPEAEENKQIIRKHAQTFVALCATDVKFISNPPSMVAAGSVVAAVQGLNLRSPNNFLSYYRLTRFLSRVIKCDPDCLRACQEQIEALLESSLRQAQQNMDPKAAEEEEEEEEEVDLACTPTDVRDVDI

Compound | IC50 ([1]; Table 2, read-out: CDK2) [µM] | IC50 [2, 4] [µM] | IC50 [3, 5] [µM] | IC50 ([1]; Table 4, read-out: IC50 (μM) CDK2) [µM] | IC50 ([2]; Table 4, read-out: IC50 (μM) CDK1) [µM] | IC50 ([3]; Table 4, read-out: IC50 (μM) CDK4) [µM]
CNC(=O)c1cc2cnc(Nc3ccc(N4CCNCC4)cn3)nc2n1C1CCCC1 [Example 58, 7-Cyclopentyl-2-(5-piperazin-1-yl-pyridin-2-ylamino)-7H-pyrrolo[2,3-d]pyrimidine-6-carboxylic acid methylamide] | > 15 | > 15 | 0.01 to 0.1 |  |  | 
CN(C)C(=O)c1cc2cnc(Nc3ccc(N4CCOCC4)cn3)nc2n1C1CCCC1 [Example 110, 7-Cyclopentyl-2-(5-morpholin-4-yl-pyridin-2-ylamino)-7H-pyrrolo[2,3-d]pyrimidine-6-carboxylic acid dimethylamide] | > 15 | > 15 | 0.1 to 1 |  |  | 
c1ncc(-c2cc3cnc(Nc4ccc(CN5CCNCC5)cn4)nc3n2C2CCCC2)o1 [Example 18, (7-Cyclopentyl-6-oxazol-5-yl-7H-pyrrolo[2,3-d]pyrimidin-2-yl)-(5-piperazin-1-ylmethyl-pyridin-2-yl)-amine] | 2.8 | 1.1 | 0.001 to 0.01 |  |  | 
CN(C)CC(=O)N1CCN(c2ccc(Nc3ncc4cc(C(=O)N(C)C)n(C5CCCC5)c4n3)nc2)CC1 [Example 88, 7-Cyclopentyl-2-{5-[4-(2-dimethylamino-acetyl)-piperazin-1-yl]-pyridin-2-ylamino}-7H-pyrrolo[2,3-d]pyrimidine-6-carboxylic acid dimethylamide] | > 15 | > 15 | 0.001 to 0.01 |  |  | 
C[C@H]1CN(c2ccc(Nc3ncc4cc(C(=O)N(C)C)n(C5CCCC5)c4n3)nc2)CCN1CCO [Example 82, 7-Cyclopentyl-2-{5-[(S)-4-(2-hydroxy-ethyl)-3-methyl-piperazin-1-yl]-pyridin-2-ylamino}-7H-pyrrolo[2,3-d]pyrimidine-6-carboxylic acid dimethylamide] | > 15 | > 15 | 0.01 to 0.1 |  |  | 
CN(C)C(=O)c1cc2cnc(Nc3ccc(N4CCN(CCCO)CC4)cn3)nc2n1C1CCCC1 [Example 21, 7-Cyclopentyl-2-{5-[4-(3-hydroxy-propyl)-piperazin-1-yl]-pyridin-2-ylamino}-7H-pyrrolo[2,3-d]pyrimidine-6-carboxylic acid dimethylamide] | > 15 | > 15 | 0.001 to 0.01 |  |  | 
C[C@@H]1CN(c2ccc(Nc3ncc4cc(C(=O)N(C)C)n(C5CCCC5)c4n3)nc2)CCN1CCO [Example 81, 7-Cyclopentyl-2-{5-[(R)-4-(2-hydroxy-ethyl)-3-methyl-piperazin-1-yl]-pyridin-2-ylamino}-7H-pyrrolo[2,3-d]pyrimidine-6-carboxylic acid dimethylamide] | > 15 | > 15 | 0.01 to 0.1 |  |  | 
CN(C)C(=O)c1cc2cnc(Nc3ccc(C(=O)NC4CCNCC4)cn3)nc2n1C1CCCC1 [Example 3, 7-Cyclopentyl-2-[5-(piperidin-4-ylcarbamoyl)-pyridin-2-ylamino]-7H-pyrrolo[2,3-d]pyrimidine-6-carboxylic acid dimethylamide] | > 15 | > 15 | 0.01 to 0.1 |  |  | 
CN(C)C(=O)c1cc2cnc(Nc3ccc(C(=O)N4CCC(N(C)C)CC4)cn3)nc2n1C1CCCC1 [Example 50, 7-Cyclopentyl-2-[5-(4-dimethylamino-piperidine-1-carbonyl)-pyridin-2-ylamino]-7H-pyrrolo[2,3-d]pyrimidine-6-carboxylic acid dimethylamide] | > 15 | > 15 | 0.01 to 0.1 |  |  | 
CN(C)C(=O)c1cc2cnc(Nc3cnc(N4CCNCC4)cn3)nc2n1C1CCCC1 [Example 48, 7-Cyclopentyl-2-(3,4,5,6-tetrahydro-2-[1,2′]bipyrazinyl-5′-ylamino)-7H-pyrrolo[2,3-d]pyrimidine-6-carboxylic acid dimethylamide] | > 15 | > 15 | 0.1 to 1 |  |  | 
CN(C)C(=O)c1cc2cnc(Nc3ccc(C(=O)N(C)C4CCNCC4)cn3)nc2n1C1CCCC1 [Example 53, 7-Cyclopentyl-2-[5-(methyl-piperidin-4-yl-carbamoyl)-pyridin-2-ylamino]-7H-pyrrolo[2,3-d]pyrimidine-6-carboxylic acid dimethylamide] | > 15 | > 15 | 0.01 to 0.1 |  |  | 
CN(C)C1CCN(c2ccc(Nc3ncc4cc(C#N)n(C5CCCC5)c4n3)nc2)CC1 [Example 47, 7-Cyclopentyl-2-((4-dimethylaminopiperidin)-1-yl-pyridin-2-ylamino)-7H-pyrrolo[2,3-d]pyrimidine-6-carbonitrile] | 8.3 | 2.6 | 0.001 to 0.01 |  |  | 
CN(C)C(=O)c1cc2cnc(Nc3ccc(CN4CCN(S(C)(=O)=O)CC4)cn3)nc2n1C1CCCC1 [Example 34, 7-Cyclopentyl-2-[5-(4-methanesulfonyl-piperazin-1-ylmethyl)-pyridin-2-ylamino]-7H-pyrrolo[2,3-d]pyrimidine-6-carboxylic acid dimethylamide] | > 15 | > 15 | 0.1 to 1 |  |  | 
CN(C)C(=O)c1cc2cnc(Nc3ccc(N4CCN(CCOCCO)CC4)cn3)nc2n1C1CCCC1 [Example 33, 7-Cyclopentyl-2-(5-{4-[2-(2-hydroxy-ethoxy)-ethyl]-piperazin-1-yl}-pyridin-2-ylamino)-7H-pyrrolo[2,3-d]pyrimidine-6-carboxylic acid dimethylamide] | > 15 | > 15 | 0.01 to 0.1 |  |  | 
CN(C)C(=O)c1cc2cnc(Nc3ccccn3)nc2n1C1CCCC1 [Example 1, 7-Cyclopentyl-2-(pyridin-2-ylamino)-7H-pyrrolo[2,3-d]pyrimidine-6-carboxylic acid dimethylamide] | > 15 | > 15 | 0.1 to 1 |  |  | 
CN(C)C(=O)c1cc2cnc(Nc3ccc(N4CCN(C(=O)C5CCCCC5)CC4)cn3)nc2n1C1CCCC1 [Example 23, 2-[5-(4-Cyclohexanecarbonyl-piperazin-1-yl)-pyridin-2-ylamino]-7-cyclopentyl-7H-pyrrolo[2,3-d]pyrimidine-6-carboxylic acid dimethylamide] | > 15 | > 15 | 0.01 to 0.1 |  |  | 
CN(C)C(=O)c1cc2cnc(Nc3ccc(C(=O)N4CCNCC4)cn3)nc2n1C1CCCC1 [Example 49, 7-Cyclopentyl-2-[5-(piperazine-1-carbonyl)-pyridin-2-ylamino]-7H-pyrrolo[2,3-d]pyrimidine-6-carboxylic acid dimethylamide] | > 15 | > 15 | 0.01 to 0.1 |  |  | 
CN(C)C(=O)c1cc2cnc(Nc3ccc(N4CCC(N)C4)cn3)nc2n1C1CCCC1 (racemic) [Example 13, Rac-2-[5-(3-Amino-pyrrolidin-1-yl)-pyridin-2-ylamino]-7-cyclopentyl-7H-pyrrolo[2,3-d]pyrimidine-6-carboxylic acid dimethylamide] | > 15 | > 15 | 0.01 to 0.1 |  |  | 
COCCN1CCN(c2ccc(Nc3ncc4cc(C(=O)N(C)C)n(C5CCCC5)c4n3)nc2)CC1 [Example 14, 7-Cyclopentyl-2-{5-[4-(2-methoxy-ethyl)-piperazin-1-yl]-pyridin-2-ylamino}-7H-pyrrolo[2,3-d]pyrimidine-6-carboxylic acid dimethylamide] | > 15 | > 15 | 0.01 to 0.1 |  |  | 
Cc1c(C(=O)N(C)C)n(C2CCCC2)c2nc(Nc3ccc(N4CCNCC4)cn3)ncc12 [Example 202, reference compound] |  |  |  | > 15 | > 15 | 2.5
